A value given as a limit tells only on which side of the number the result lay.

In one test the test system is anoxia induced by sodium nitrite in mice. Put plainly: Anti-cerebral anoxia in mice, anoxia induced by sodium nitrite. In kind it is in vivo. The conditions noted are these: Mus musculus, sc, mice; sodium nitrite 225 mg/kg ip; compound 20 mg/kg sc; read-out: Prolonging the survival duration (%). Here is the method:
The rates of the prolongation of 9 compounds (IV-2, 10, 23, 32, 34, 36, 39, 40, 41) were more than 50%, which indicated the effect of anti-cerebral anoxia. IV-23 and IV-2 prolonged the survival duration by 100% of the animals, showing remarkably protective action for cerebral anoxia. (Table 3)
One model was established to test the time needed for mice to die because of anoxia caused by sodium nitrite (225 mg/kg, ip). IV-23 (20 mg/kg, sc) can prolong the time for 100%, indicating significant anti-cerebral anoxic anoxia activity.
Turning to `O=C(CN1CCN(CC(=O)NCc2ccccc2)CC1)NCc1ccccc1` [IV-25, N^1,N^4-di[2-(benzylamino)-2-oxo-ethyl] piperazine], the ILS at 20 mg/kg is 30%.

On to `O=C(CN1CCN(S(=O)(=O)Cc2ccc([N+](=O)[O-])cc2)CC1)NCc1ccccc1` [IV-64, N^1-[2-(benzylamino)-2-oxo-ethyl]-N^4-(4-nitrobenzylsulfonyl) piperazine], for which the ILS at 20 mg/kg came to 20%.

With `N#Cc1cccc(CS(=O)(=O)N2CCN(CC(=O)c3ccccc3)CC2)c1` [IV-48, N^1-phenacyl-N^4-(3-cyanophenylmethylsulfonyl) piperazine], the ILS at 20 mg/kg was 16%. For the molecule `O=C(CN1CCN(S(=O)(=O)Cc2ccc(C(F)(F)F)cc2)CC1)c1ccccc1` [IV-55, N^1-phenacyl-N^4-(4-trifluoromethylbenzylsulfonyl) piperazine], the ILS at 20 mg/kg amounted to 4%. Still for that read-out and setting: then `O=C(CN1CCN(S(=O)(=O)Cc2ccc(-c3ccccc3)cc2)CC1)c1ccccc1` [IV-56, N^1-phenacyl-N^4-(4-phenylbenzylsulfonyl) piperazine], with 25%; and `O=C(CN1CCN(CC(=O)c2ccccc2)CC1)NCc1ccc2c(c1)OCO2` [IV-32, N^1-phenacyl-N^4-[2-(3,4-methylenedioxybenzylamino)-2-oxo-ethyl] piperazine], with above 50%. The same measure, in the same setting: to `O=C(CN1CCN(CC(=O)c2ccccc2)CC1)Nc1ccccc1` [IV-24, N^1-phenacyl-N^4-[2-(phenylamino)-2-oxo-ethyl] piperazine] belongs 34%; to `O=C(CN1CCN(S(=O)(=O)Cc2ccccc2CS(=O)(=O)c2ccccc2)CC1)c1ccccc1` [IV-54, N^1-phenacyl-N^4-[2-(benzenesulfonylmethyl)benzylsulfonyl] piperazine], 25%; to `N#Cc1ccccc1-c1ccc(CS(=O)(=O)N2CCN(CC(=O)c3ccccc3)CC2)cc1` [IV-58, N^1-phenacyl-N^4-[4-(2-cyanophenyl)benzylsulfonyl] piperazine], 25%. The same measure, in the same setting: then `O=C(CN1CCN(S(=O)(=O)Cc2ccc(Oc3ccccc3)cc2)CC1)c1ccccc1` [IV-53, N^1-phenacyl-N^4-(4-phenoxybenzylsulfonyl) piperazine], with 15%; and `O=C(CN1CCN(C(=O)C(O)c2ccc(Cl)cc2)CC1)c1ccccc1` (stereo not drawn) [IV-19, N^1-phenacyl-N^4-[2-hydroxy-2-(4-chlorophenyl)acetyl] piperazine], with 18%.

The same test, now with this note: Mus musculus, sc, read-out: Prolonging the survival duration (%), mice; sodium nitrite 225 mg/kg ip; compound 20 mg/kg sc.
`CC(C(=O)c1ccccc1)N1CCN(CC(=O)NCc2ccccc2)CC1` (stereo not drawn) [IV-26, N^1-(1-benzoylethyl)-N^4-[2-(benzylamino)-2-oxo-ethyl] piperazine]: the ILS at 20 mg/kg is 36%. Regarding `COc1ccc(C(=O)CN2CCN(C(=O)Cc3ccccc3O)CC2)cc1` [IV-16, N^1-(4-methoxyphenacyl)-N^4-[(2-hydroxy)phenylacetyl] piperazine], the ILS at 20 mg/kg was 30%. As to `CC(C(=O)c1ccccc1)N1CCN(C(=O)C(O)c2ccc(Cl)cc2)CC1` (stereo not drawn) [IV-17, N^1-(1-benzoylethyl)-N^4-[2-hydroxy-2-(4-chlorophenyl)acetyl] piperazine], the ILS at 20 mg/kg came out at 14%.

As to `CC(C(=O)c1ccccc1)N1CCN(CC(=O)c2ccccc2)CC1` (stereo not drawn) [IV-13, N^1-(1-benzoylethyl)-N^4-phenacyl-piperazine], the ILS at 20 mg/kg stood at 32%.

Staying with this test, now noted: mice; sodium nitrite 225 mg/kg ip; compound 20 mg/kg sc.
In the case of `O=C(CN1CCN(CC(O)c2ccccc2)CC1)NCc1ccccc1` (stereo not drawn) [IV-37, N^1-[2-(benzylamino)-2-oxo-ethyl]-N^4-(2-phenylethyl-2-ol) piperazine], the “Prolonging the survival duration (%)” value turned out to be 13%. For `CC(C(=O)c1ccccc1)N1CCN(C(=O)[C@@H](O)c2ccccc2)CC1` (stereo partly drawn) [IV-44, N^1-(S-2-hydroxy-1-oxo-2-phenylethyl)-N^4-(1-benzoylethyl) piperazine], the “Prolonging the survival duration (%)” value was found to be 3%. On the same count and under the same terms, to `COc1ccc2cc(C(=O)C(C)N3CCN(CC(=O)NC(C)c4ccccc4)CC3)ccc2c1Cl` (stereo not drawn) [IV-49, N^1-[1-(5-chloro-6-methoxy-2-naphthoyl)ethyl]-N^4-[2-(1-phenylethanamino)-2-oxo-ethyl] piperazine] belongs 30%.

The record behind these values is patent publication US7326710B2, “Aralkyl formyl-alkyl piperazine derivatives and their uses as a cerebral nerve protective agent” (Shanghai Institute of Pharmaceutical Industry, priority 2002, dated 2008).
